The supplement of paper PMC5579334
± gives the standard deviation of the averaged measurements.

Key:
YST-1 [1] = experiment: % inhibition of CellTiter-Glo viability at highest tested concentration (72 h), relative to DMSO and benzethonium chloride controls; higher = more inhibition
Method in brief: (§1)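 Viability was scored by CellTiter-Glo ATP luminescence, scaled from vehicle to positive-control wells, with duplicates averaged where present. The cells, MPNST lines and primary human Schwann cells at 750–1000 per well, sat 72 h at 37 °C, 5% CO2, in 384-well plates preprinted with each compound at five concentrations in 10-fold steps. Four-parameter logistic fits were run on the data. These fits give drug sensitivity score and relative IC50 censored at the top concentration, and percent inhibition is reported at the top concentration.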

[2] = system: HSC1 (primary human Schwann cells); experiment: as above
Method in brief: as §1

S462 [3] = experiment: as above
Method in brief: as §1

S1507-2 [4] = experiment: as above
Method in brief: as §1

HS-Sch-2 [5] = experiment: as above
Method in brief: as §1

STS26T [6] = experiment: as above
Method in brief: as §1

HS-PSS [7] = experiment: as above
Method in brief: as §1

ST8814 [8] = experiment: as above
Method in brief: as §1

[9] = system: HSC2 (primary human Schwann cells); experiment: as above
Method in brief: as §1

[10] = system: HSC1 (primary human Schwann cells); experiment: drug sensitivity score (DSS, CellTox-Green cytotoxicity, 72 h) (DSS (dimensionless)); higher = more cytotoxic; extreme values may be limits of the assay
Method in brief: (§2)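 MPNST cell lines and primary human Schwann cells were incubated 72 h at 37 °C in 384-well plates holding five 10-fold compound dilutions. CellTox-Green was added before seeding at a final 1:1000 dilution and reported fluorescence from DNA released by disrupted cells. Signals were scaled to vehicle and positive-control wells, and cultures failing plate quality control were dropped. Drug sensitivity score and relative IC50 come from four-parameter logistic fits, with IC50 censored at the top concentration.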

S1507-2 [11] = experiment: as above
Method in brief: as §2

STS26T [12] = experiment: as above
Method in brief: as §2

HS-PSS [13] = experiment: as above
Method in brief: as §2

ST8814 [14] = experiment: as above
Method in brief: as §2

[15] = system: HSC2 (primary human Schwann cells); experiment: as above
Method in brief: as §2

YST-1 [16] = experiment: drug sensitivity score (DSS, CellTiter-Glo viability, 72 h) (DSS (dimensionless)); higher = more sensitive; extreme values may be limits of the assay
Method in brief: as §1

[17] = system: HSC1 (primary human Schwann cells); experiment: as above
Method in brief: as §1

S462 [18] = experiment: as above
Method in brief: as §1

S1507-2 [19] = experiment: as above
Method in brief: as §1

HS-Sch-2 [20] = experiment: as above
Method in brief: as §1

STS26T [21] = experiment: as above
Method in brief: as §1

HS-PSS [22] = experiment: as above
Method in brief: as §1

ST8814 [23] = experiment: as above
Method in brief: as §1

[24] = system: HSC2 (primary human Schwann cells); experiment: as above
Method in brief: as §1

SMILES	% inhibition (YST-1 [1])	% inhibition [2]	% inhibition (S462 [3])	% inhibition (S1507-2 [4])	% inhibition (HS-Sch-2 [5])	% inhibition (STS26T [6])	% inhibition (HS-PSS [7])	% inhibition (ST8814 [8])	% inhibition [9]	drug sensitivity score [10]	drug sensitivity score (S1507-2 [11])	drug sensitivity score (STS26T [12])	drug sensitivity score (HS-PSS [13])	drug sensitivity score (ST8814 [14])	drug sensitivity score [15]	drug sensitivity score (YST-1 [16])	drug sensitivity score [17]	drug sensitivity score (S462 [18])	drug sensitivity score (S1507-2 [19])	drug sensitivity score (HS-Sch-2 [20])	drug sensitivity score (STS26T [21])	drug sensitivity score (HS-PSS [22])	drug sensitivity score (ST8814 [23])	drug sensitivity score [24]
CN(C)c1nc(N(C)C)nc(N(C)C)n1 [Altretamine] (max concentration tested 10000 nM)	9.76%	6.31%	-12.7 ± 1.5%	-7.42 ± 0.53%	-1.37%	5.66%	-1.71%	-6.95%	-0.459%	0	0.0018 ± 0.0026	0	0	0	0	0	0	0	0	0	0	0	0	0
CC(=O)O[C@H]1C(=O)[C@@]2(C)[C@H]([C@H](OC(=O)c3ccccc3)[C@]3(O)C[C@H](OC(=O)[C@H](O)[C@@H](NC(=O)c4ccccc4)c4ccccc4)C(C)=C1C3(C)C)[C@]1(OC(C)=O)CO[C@@H]1C[C@@H]2O [Paclitaxel] (max concentration tested 1000 nM)	81.6%	70.6%	99.3 ± 1.5%	84.6 ± 1%	93%	99.6%	45.7%	94.5%	73.9%	17.8	15.9 ± 1.1	33.8	0	18.6	20.3	23.7	18	28.8 ± 1.5	17.3 ± 0.6	23.3	28.1	12.2	18.3	19.1
C[C@]12C=CC(=O)C=C1CC[C@@H]1[C@@H]2C(=O)C[C@@]2(C)[C@H]1CC[C@]2(O)C(=O)CO [Prednisone] (max concentration tested 10000 nM)	-5.67%	-0.144%	-0.361 ± 2%	0.647 ± 14%	12.9%	4.83%	3.03%	-2.07%	2.63%	0	0	0	0	0	0	0	0	0	0	0.07	0	0	0	0
CNC(=O)c1cc(Oc2ccc(NC(=O)Nc3cc(C(C)(C)C)nn3-c3ccc4ncccc4c3)c(F)c2)ccn1 [Rebastinib] (max concentration tested 1000 nM)	0.76%	0.317%	-0.0982 ± 1.4%	-4.17 ± 6.4%	-12.3%	-1.27%	-1.59%	-2.38%	-5.07%	0	0	0	0	0	0	0	0	0	0	0	0	0	0	0
COc1cc2c(NC3CCN(C(C)C)CC3)nc(C3CCCCC3)nc2cc1OCCCN1CCCC1 [UNC0638] (max concentration tested 10000 nM)	100%	21.5%	98.9 ± 1.6%	99.6 ± 1%	101%	99.1%	101%	98.6%	14.9%	0	23.4 ± 25	5.16	6.72	7.41	0	6.1	0.362	6.31 ± 2.1	8.72 ± 0.32	7.32	5.05	8.75	6.45	0.116
CO[C@H]1/C=C\C=C(/C)C(=O)NC2=CC(=O)C(NCCN(C)C)=C(C[C@@H](C)C[C@H](OC)[C@H](O)[C@@H](C)/C=C(\C)[C@@H]1OC(N)=O)C2=O [Alvespimycin] (max concentration tested 1000 nM)	78.2%	98.1%	99.51 ± 0.13%	95.7 ± 2.9%	100%	91.8%	85.3%	98.8%	96.2%	8.04	7.17 ± 1.2	7.8	3.83	6.78	8.36	15.4	10	15.4 ± 0.78	12.3 ± 0.18	15.8	12.5	13.8	14.6	9.75
Cc1cccc(-c2nn3c(c2-c2ccnc4ccc(C(N)=O)cc24)CCC3)n1 [Galunisertib] (max concentration tested 1000 nM)	-12.1%	6.58%	5.62 ± 8.5%	9.64 ± 5.1%	-22%	12.7%	3.21%	-1.47%	10.8%	0	0.0896 ± 0.13	0	0	0	0	0	0	0.00835 ± 0.012	0	0	0.276	0	0	0
COc1cc2nccc(Oc3ccc(NC(=O)C4(C(=O)Nc5ccc(F)cc5)CC4)cc3)c2cc1OC [Cabozantinib] (max concentration tested 1000 nM)	0.14%	13.2%	14 ± 4.9%	27.7 ± 7.5%	10.9%	13.4%	23%	21.3%	8.9%	0	0	0	0	0	0	0	0.225	0.552 ± 0.78	4.78 ± 0.14	0.13	0.238	1.89	2.2	0
CN1CCC(COc2cnc(-c3cccc(Cn4nc(-c5cccc(C#N)c5)ccc4=O)c3)nc2)CC1 (max concentration tested 1000 nM)	2.87%	6.94%	12.1 ± 1.4%	28.3 ± 1.1%	0.48%	13.9%	2.35%	9.67%	8.76%	0	0.27 ± 0.38	0.0133	0	0	0	0	0	2.88 ± 4.1	7.535 ± 0.062	0	0.286	0	0	0
CC(C)n1cnc2c(NCCc3ccc(O)cc3)nc(-c3csc4ccccc34)nc21 [StemRegenin 1] (max concentration tested 10000 nM)	-1.94%	42%	15.8 ± 7.6%	19 ± 17%	92.9%	41.7%	46.5%	31.3%	37%	0	0	0.0972	0	0	0	0	1.71	0.493 ± 0.7	0.495 ± 0.7	4.66	1.69	2.39	1.77	2.51
C[C@@H](C(=O)O)c1ccc(-c2ccccc2)c(F)c1 [Tarenflurbil] (max concentration tested 10000 nM)	-2.65%	1.66%	-5.38 ± 11%	-1.93 ± 0.15%	-4.22%	-0.273%	-1.84%	-0.223%	-6.06%	0	0.283 ± 0.4	0	0	0	0	0	0	0	0	0	0	0	0	0
CC1(C)CNc2cc(NC(=O)c3cccnc3NCc3ccncc3)ccc21 [Motesanib] (max concentration tested 10000 nM)	15%	9.4%	4.64 ± 6.4%	6.17 ± 1.9%	7.18%	4.89%	5.39%	-4.55%	15.5%	0	0.104 ± 0.15	0	0	0	0	0.25	0	0	0	0	0	0	0	0.232
CCn1c(C(=O)N(C2CC2)C2CC2)cc2c3c(ncn3C)c(Nc3cc(C)n(C)n3)nc21 (max concentration tested 10000 nM)	29.6%	9.48%	0.708 ± 7.6%	3.94 ± 19%	16%	2.67%	8.84%	7.29%	-0.298%	0	0	0	0	0	0	2.34	0	0	0.094 ± 0.13	0.17	0	0	0	0
